According to patent US8114880B2, “Piperidine or piperazine substituted tetrahydro-naphthalene-1-carboxylic acid MTP inhibiting compounds” (Janssen Pharmaceutica N.V., priority 2006, dated 2012):

Each molecule was assayed against MTP (Homo sapiens, UniProt P55157) (assay: MTP assay (triglyceride transfer from donor to acceptor vesicles)). Details: MTP activity, percent triglyceride transfer from donor to acceptor vesicles, 37° C.
Format: biochemical
Description: MTP activity was measured using an assay similar to one described by J. R. Wetterau and D. B. Zilversmit in Chemistry and Physics of Lipids, 38, 205-222 (1985). To prepare the donor and acceptor vesicles, the appropriate lipids in chloroform were put into a glass test tube and dried under a stream of nitrogen. A buffer containing 15 mM Tris-HCl pH 7.5, 1 mM EDTA, 40 mM NaCl, 0.02% NaN3 (assay buffer) was added to the dried lipid. The mixture was vortexed briefly and the lipids were then allowed to hydrate for 20 minutes on ice. Vesicles were then prepared by bath sonication (Branson 2200) at room temperature for maximum 15 minutes. Butylated hydroxytoluene was included in all vesicle preparations at a concentration of 0.1%. The lipid transfer assay mixture contained donor vesicles (40 nmol phosphatidylcholine, 7.5 mol % of cardiolipin and 0.25 mol % glycerol tri [1-^14C]-oleate), acceptor vesicles (240 nmol phosphatidylcholine) and 5 mg BSA in a total volume of 675 μl in a 1.5 ml microcentrifuge tube. Test compounds were added dissolved in DMSO (0.13% final concentration). After 5 minutes of pre-incubation at 37° C., the reaction was started by the addition of MTP in 100 μl dialysis buffer. The reaction was stopped by the addition of 400 μl DEAE-52 cellulose pre-equilibrated in 15 mM Tris-HCl pH 7.5, 1 mM EDTA, 0.02% NaN3 (1:1, vol/vol). The mixture was agitated for 4 minutes and centrifuged for 2 minutes at maximum speed in an Eppendorf centrifuge (4° C.) to pellet the DEAE-52-bound donor vesicles. An aliquot of the supernatant containing the acceptor liposomes was counted and the [^14C]-counts were used to calculate the percent triglyceride transfer from donor to acceptor vesicles.

MTP, sequence (P55157 19-894, species assumed): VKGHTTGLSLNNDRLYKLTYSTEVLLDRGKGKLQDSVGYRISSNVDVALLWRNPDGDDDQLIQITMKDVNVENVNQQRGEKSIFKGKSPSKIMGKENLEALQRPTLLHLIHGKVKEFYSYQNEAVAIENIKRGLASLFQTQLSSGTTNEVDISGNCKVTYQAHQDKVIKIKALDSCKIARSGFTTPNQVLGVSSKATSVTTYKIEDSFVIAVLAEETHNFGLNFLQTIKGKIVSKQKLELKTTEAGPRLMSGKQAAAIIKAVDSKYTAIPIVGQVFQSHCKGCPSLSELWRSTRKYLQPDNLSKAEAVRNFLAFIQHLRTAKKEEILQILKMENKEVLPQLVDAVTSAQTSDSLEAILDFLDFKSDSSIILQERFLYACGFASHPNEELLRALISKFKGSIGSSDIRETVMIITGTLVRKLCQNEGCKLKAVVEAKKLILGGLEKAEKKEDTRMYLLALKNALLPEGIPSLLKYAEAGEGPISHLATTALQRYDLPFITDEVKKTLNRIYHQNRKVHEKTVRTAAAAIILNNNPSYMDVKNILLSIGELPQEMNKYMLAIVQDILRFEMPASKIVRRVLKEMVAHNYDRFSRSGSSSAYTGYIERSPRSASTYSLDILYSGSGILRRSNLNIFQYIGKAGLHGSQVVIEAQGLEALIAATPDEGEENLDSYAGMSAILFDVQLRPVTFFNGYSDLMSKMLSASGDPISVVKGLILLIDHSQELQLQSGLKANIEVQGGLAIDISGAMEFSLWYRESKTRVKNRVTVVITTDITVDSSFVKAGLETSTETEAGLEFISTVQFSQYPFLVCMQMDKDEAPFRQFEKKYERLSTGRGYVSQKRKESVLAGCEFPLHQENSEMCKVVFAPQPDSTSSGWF
MTP, sequence (P07237 18-508 partner, species assumed): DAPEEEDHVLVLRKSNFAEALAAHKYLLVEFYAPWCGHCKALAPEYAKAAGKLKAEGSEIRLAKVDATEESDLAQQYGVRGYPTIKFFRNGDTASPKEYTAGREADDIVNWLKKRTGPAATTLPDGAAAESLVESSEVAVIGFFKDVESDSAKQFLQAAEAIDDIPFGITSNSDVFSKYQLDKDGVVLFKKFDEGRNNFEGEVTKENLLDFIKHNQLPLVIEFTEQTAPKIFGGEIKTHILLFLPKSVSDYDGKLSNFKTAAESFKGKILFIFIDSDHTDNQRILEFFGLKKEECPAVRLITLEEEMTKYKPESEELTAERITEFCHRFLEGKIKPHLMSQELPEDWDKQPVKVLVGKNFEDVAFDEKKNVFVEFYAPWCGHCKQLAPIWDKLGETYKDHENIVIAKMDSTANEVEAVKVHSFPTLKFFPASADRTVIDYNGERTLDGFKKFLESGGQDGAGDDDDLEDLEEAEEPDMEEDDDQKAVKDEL

IC50 [nM]	Compound
1920	CCOC(=O)C[C@H](NC(=O)[C@@]1(c2ccccc2)CC[C@H](C(=O)N2CCC(NC(=O)c3cccn(C)c3=O)CC2)c2ccccc21)C(=O)OCC [Co. No. 143]
> 10000	CCOC(=O)[C@@H]1CCCN1C(=O)[C@@]1(c2ccccc2)CC[C@H](C(=O)N2CCC(NC(=O)c3cccn(C)c3=O)CC2)c2ccccc21 [Co. No. 149]
> 10000	CCOC(=O)[C@H]1CCCN1C(=O)[C@@]1(c2ccccc2)CC[C@H](C(=O)N2CCC(NC(=O)c3cccn(C)c3=O)CC2)c2ccccc21 [Co. No. 150]
1630	CCOC(=O)[C@H](NC(=O)[C@@]1(c2ccccc2)CC[C@H](C(=O)N2CCC(NC(=O)c3cccn(C)c3=O)CC2)c2ccccc21)c1ccccc1 [Co. No. 152]
1850	CCOC(=O)[C@H](Cc1ccccc1)NC(=O)[C@@]1(c2ccccc2)CC[C@H](C(=O)N2CCC(NC(=O)c3cccn(C)c3=O)CC2)c2ccccc21 [Co. No. 154]
731	CCOC(=O)[C@@H](Cc1ccccc1)NC(=O)[C@@]1(c2ccccc2)CC[C@H](C(=O)N2CCC(NC(=O)c3cccn(C)c3=O)CC2)c2ccccc21 [Co. No. 155]
1450	CN(CC(=O)OC(C)(C)C)C(=O)[C@@]1(c2ccccc2)CC[C@H](C(=O)N2CCC(NC(=O)c3cccn(C)c3=O)CC2)c2ccccc21 [Co. No. 163]
1750	Cn1cccc(C(=O)NC2CCN(C(=O)[C@H]3CC[C@@](C(=O)N[C@@H](CC(=O)OC(C)(C)C)C(=O)OC(C)(C)C)(c4ccccc4)c4ccccc43)CC2)c1=O [Co. No. 169]
1490	Cn1cccc(C(=O)NC2CCN(C(=O)[C@H]3CC[C@@](C(=O)N[C@@H](Cc4ccccc4)C(=O)OC(C)(C)C)(c4ccccc4)c4ccccc43)CC2)c1=O [Co. No. 178]
1320	Cn1cccc(C(=O)NC2CCN(C(=O)[C@H]3CC[C@@](C(=O)N[C@H](Cc4ccccc4)C(=O)OC(C)(C)C)(c4ccccc4)c4ccccc43)CC2)c1=O [Co. No. 179]
2670	Cn1cccc(C(=O)NC2CCN(C(=O)[C@H]3CC[C@@](C(=O)N[C@@H](Cc4ccc(O)cc4)C(=O)OC(C)(C)C)(c4ccccc4)c4ccccc43)CC2)c1=O [Co. No. 180]
> 10000	C[C@H](NC(=O)[C@@]1(c2ccccc2)CC[C@H](C(=O)N2CCC(NC(=O)c3cccn(C)c3=O)CC2)c2ccccc21)C(=O)O [Co. No. 183]
> 10000	CN(CC(=O)O)C(=O)[C@@]1(c2ccccc2)CC[C@H](C(=O)N2CCC(NC(=O)c3cccn(C)c3=O)CC2)c2ccccc21 [Co. No. 185]
> 10000	Cn1cccc(C(=O)NC2CCN(C(=O)[C@H]3CC[C@@](C(=O)N4CCC[C@@H]4C(=O)O)(c4ccccc4)c4ccccc43)CC2)c1=O [Co. No. 191]

The next lines start with the molecule.

Compound	IC50 [nM]
CCOC(=O)[C@H](NC(=O)[C@@]1(c2ccccc2)CC[C@H](C(=O)N2CCC(NC(=O)c3cccn(C)c3=O)CC2)c2ccccc21)C(C)C [Co. No. 140]	1090
CCOC(=O)[C@H](CC(C)C)NC(=O)[C@@]1(c2ccccc2)CC[C@H](C(=O)N2CCC(NC(=O)c3cccn(C)c3=O)CC2)c2ccccc21 [Co. No. 141]	1860
CCOC(=O)[C@H](CO)NC(=O)[C@@]1(c2ccccc2)CC[C@H](C(=O)N2CCC(NC(=O)c3cccn(C)c3=O)CC2)c2ccccc21 [Co. No. 142]	> 10000
CCOC(=O)C1CCCCN1C(=O)[C@@]1(c2ccccc2)CC[C@H](C(=O)N2CCC(NC(=O)c3cccn(C)c3=O)CC2)c2ccccc21 (some centres unmarked) [Co. No. 144]	3830
COC(=O)CC[C@H](NC(=O)[C@@]1(c2ccccc2)CC[C@H](C(=O)N2CCC(NC(=O)c3cccn(C)c3=O)CC2)c2ccccc21)C(=O)OC [Co. No. 145]	5380
CCOC(=O)CC[C@H](NC(=O)[C@@]1(c2ccccc2)CC[C@H](C(=O)N2CCC(NC(=O)c3cccn(C)c3=O)CC2)c2ccccc21)C(=O)OCC [Co. No. 146]	776
COC(=O)[C@@H]1C[C@@H](O)CN1C(=O)[C@@]1(c2ccccc2)CC[C@H](C(=O)N2CCC(NC(=O)c3cccn(C)c3=O)CC2)c2ccccc21 [Co. No. 151]	> 10000
CCOC(=O)[C@@H](NC(=O)[C@@]1(c2ccccc2)CC[C@H](C(=O)N2CCC(NC(=O)c3cccn(C)c3=O)CC2)c2ccccc21)c1ccccc1 [Co. No. 153]	1110
CCOC(=O)C(Cc1ccc(O)cc1)NC(=O)[C@@]1(c2ccccc2)CC[C@H](C(=O)N2CCC(NC(=O)c3cccn(C)c3=O)CC2)c2ccccc21 (some centres unmarked) [Co. No. 156]	1530
CCOC(=O)C(Cc1c[nH]c2ccccc12)NC(=O)[C@@]1(c2ccccc2)CC[C@H](C(=O)N2CCC(NC(=O)c3cccn(C)c3=O)CC2)c2ccccc21 (some centres unmarked) [Co. No. 157]	1650
COC(=O)CNC(=O)[C@@]1(c2ccccc2)CC[C@H](C(=O)N2CCC(NC(=O)c3cccn(C)c3=O)CC2)c2ccccc21 [Co. No. 158]	847
Cn1cccc(C(=O)NC2CCN(C(=O)C3CC[C@@](C(=O)NCC(=O)OC(C)(C)C)(c4ccccc4)c4ccccc43)CC2)c1=O (some centres unmarked) [Co. No. 160]	366
C[C@H](NC(=O)[C@@]1(c2ccccc2)CC[C@H](C(=O)N2CCC(NC(=O)c3cccn(C)c3=O)CC2)c2ccccc21)C(=O)OC(C)(C)C [Co. No. 161]	458
C[C@@H](NC(=O)[C@@]1(c2ccccc2)CC[C@H](C(=O)N2CCC(NC(=O)c3cccn(C)c3=O)CC2)c2ccccc21)C(=O)OC(C)(C)C [Co. No. 162]	1790
CC(C)[C@H](NC(=O)[C@@]1(c2ccccc2)CC[C@H](C(=O)N2CCC(NC(=O)c3cccn(C)c3=O)CC2)c2ccccc21)C(=O)OC(C)(C)C [Co. No. 165]	506
CC(C)[C@@H](NC(=O)[C@@]1(c2ccccc2)CC[C@H](C(=O)N2CCC(NC(=O)c3cccn(C)c3=O)CC2)c2ccccc21)C(=O)OC(C)(C)C [Co. No. 166]	755
CC(C)C[C@H](NC(=O)[C@@]1(c2ccccc2)CC[C@H](C(=O)N2CCC(NC(=O)c3cccn(C)c3=O)CC2)c2ccccc21)C(=O)OC(C)(C)C [Co. No. 167]	793

Compound	IC50 [nM]
Cn1cccc(C(=O)NC2CCN(C(=O)[C@H]3CC[C@@](C(=O)N[C@@H](COC(C)(C)C)C(=O)OC(C)(C)C)(c4ccccc4)c4ccccc43)CC2)c1=O [Co. No. 168]	697
Cn1cccc(C(=O)NC2CCN(C(=O)[C@H]3CC[C@@](C(=O)N[C@@H](CCC(N)=O)C(=O)OC(C)(C)C)(c4ccccc4)c4ccccc43)CC2)c1=O [Co. No. 170]	> 10000
Cn1cccc(C(=O)NC2CCN(C(=O)[C@H]3CC[C@@](C(=O)N[C@@H](CCC(=O)OC(C)(C)C)C(=O)OC(C)(C)C)(c4ccccc4)c4ccccc43)CC2)c1=O [Co. No. 171]	418
Cn1cccc(C(=O)NC2CCN(C(=O)[C@H]3CC[C@@](C(=O)N4CCC[C@H]4C(=O)OC(C)(C)C)(c4ccccc4)c4ccccc43)CC2)c1=O [Co. No. 173]	3300
Cn1cccc(C(=O)NC2CCN(C(=O)[C@H]3CC[C@@](C(=O)N4CCC[C@@H]4C(=O)OC(C)(C)C)(c4ccccc4)c4ccccc43)CC2)c1=O [Co. No. 174]	2730
Cn1cccc(C(=O)NC2CCN(C(=O)[C@H]3CC[C@@](C(=O)N4C[C@H](OC(C)(C)C)C[C@H]4C(=O)OC(C)(C)C)(c4ccccc4)c4ccccc43)CC2)c1=O [Co. No. 175]	3720
Cn1cccc(C(=O)NC2CCN(C(=O)[C@H]3CC[C@@](C(=O)N[C@@H](C(=O)OC(C)(C)C)c4ccccc4)(c4ccccc4)c4ccccc43)CC2)c1=O [Co. No. 176]	1880
Cn1cccc(C(=O)NC2CCN(C(=O)[C@H]3CC[C@@](C(=O)N[C@H](C(=O)OC(C)(C)C)c4ccccc4)(c4ccccc4)c4ccccc43)CC2)c1=O [Co. No. 177]	1620
Cn1cccc(C(=O)NC2CCN(C(=O)[C@H]3CC[C@@](C(=O)N[C@@H](CC(N)=O)C(=O)OC(C)(C)C)(c4ccccc4)c4ccccc43)CC2)c1=O [Co. No. 181]	> 10000
Cn1cccc(C(=O)NC2CCN(C(=O)[C@H]3CC[C@@](C(=O)NCC(=O)O)(c4ccccc4)c4ccccc43)CC2)c1=O [Co. No. 182]	> 10000
C[C@@H](NC(=O)[C@@]1(c2ccccc2)CC[C@H](C(=O)N2CCC(NC(=O)c3cccn(C)c3=O)CC2)c2ccccc21)C(=O)O [Co. No. 184]	> 10000
Cn1cccc(C(=O)NC2CCN(C(=O)[C@H]3CC[C@@](C(=O)NCCC(=O)O)(c4ccccc4)c4ccccc43)CC2)c1=O [Co. No. 186]	> 10000
CC(C)[C@H](NC(=O)[C@@]1(c2ccccc2)CC[C@H](C(=O)N2CCC(NC(=O)c3cccn(C)c3=O)CC2)c2ccccc21)C(=O)O [Co. No. 187]	> 10000
CC(C)[C@@H](NC(=O)[C@@]1(c2ccccc2)CC[C@H](C(=O)N2CCC(NC(=O)c3cccn(C)c3=O)CC2)c2ccccc21)C(=O)O [Co. No. 188]	> 10000
CC(C)C[C@H](NC(=O)[C@@]1(c2ccccc2)CC[C@H](C(=O)N2CCC(NC(=O)c3cccn(C)c3=O)CC2)c2ccccc21)C(=O)O [Co. No. 189]	> 10000
Cn1cccc(C(=O)NC2CCN(C(=O)[C@H]3CC[C@@](C(=O)NC(CCCCN)C(=O)O)(c4ccccc4)c4ccccc43)CC2)c1=O (some centres unmarked) [Co. No. 190]	> 10000
